The source of these data is US7868006B2, “Heterocyclic substituted piperazines with CXCR3 antagonist activity” (Schering Corporation, priority 2005, dated 2011).

A value given as a limit tells only on which side of the number the result lay.

This experiment addresses T1, human CXCR3 (N-delta 4) (Homo sapiens, UniProt P49682).
T1 construct: CD8 leader (N); Flag tag (N); expressed in transfected cells; host or cells: mouse pro-B Ba/F3 cells, stably transfected with pME18Sneo-hCXCR3 (N-delta 4); membrane preparation
T1 sequence (P49682 5-368 limits assumed): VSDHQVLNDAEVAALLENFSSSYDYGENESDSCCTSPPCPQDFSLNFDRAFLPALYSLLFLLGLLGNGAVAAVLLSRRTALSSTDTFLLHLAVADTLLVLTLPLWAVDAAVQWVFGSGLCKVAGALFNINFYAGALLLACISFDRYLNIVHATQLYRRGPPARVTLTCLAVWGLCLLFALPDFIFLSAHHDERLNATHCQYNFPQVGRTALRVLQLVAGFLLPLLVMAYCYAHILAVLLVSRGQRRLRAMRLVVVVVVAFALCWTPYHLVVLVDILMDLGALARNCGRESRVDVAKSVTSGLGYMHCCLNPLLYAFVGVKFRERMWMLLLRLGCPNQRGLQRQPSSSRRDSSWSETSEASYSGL
Nature of the experiment: Human CXCR3 (N-delta 4) Scintillation Proximity Assay (SPA), [125I] IP-10 binding. The following applies: IC50 rating; Ba/F3-hCXCR3 (N-delta 4) membranes, 25 pM [125I] IP-10; read-out: IC50. An excerpt: The inventive compounds can readily be evaluated to determine activity at The CXCR3 receptors by known methods, such as, for example, Development of Human CXCR3 (N-delta 4) Binding Assay.
Cloning and Expression of Human CXCR3 (N-delta 4):
The DNA encoding human CXCR3 was cloned by PCR using human genomic DNA (Promega, Madison, Wis.) as a template. The PCR primers were designed based on the published sequence of human orphan receptor GPR9 (1) with incorporated restriction sites, a Kozak consensus sequence, CD8 leader and Flag tag. The PCR product was subcloned into the mammalian expression vector pME18Sneo, a derivative of the SR-alpha expression vector (designated as pME18Sneo-hCXCR3 (N-delta 4).
IL-3-dependent mouse pro-B cells Ba/F3 were transfected by electroporation in 0.4 ml Dulbecco's PBS containing 4×10^6 cells with 20 μg of pME18Sneo-hCXCR3 (N-delta 4) plasmid DNA. Cells were pulsed at 400 Volts, 100 OHMs, 960 μFd. The transfected cells were under selection with 1 mg/ml G418 (Life Technologies, Gaithersburg, Md.). G418-resistant Ba/F3 clones were screened for CXCR3 expression by specific binding of [^125I] IP-10 (NEN Life Science Products, Boston, Mass.).
Preparation of Ba/F3-hCXCR3 (N-delta 4) Membranes:
Ba/F3 cells expressing human CXCR3 (N-delta 4) were pelleted and resuspended in the lysis buffer containing 10 mM HEPES, pH 7.5 and Complete® protease inhibitors (1 tablet per 100 ml) (Boehringer Mannheim, Indianapolis, Ind.) at a cell density of 20×10^6 cells per ml. After 5 minutes incubation on ice, cells were transferred to 4639 cell disruption bomb (Parr Instrument, Moline, Ill.) and applied with 1,500 psi of nitrogen for 30 minutes on ice. Large cellular debris was removed by centrifugation at 1,000×g. Cell membrane in the supernatant was sedimented at 100,000×g. The membrane was resuspended in the lysis buffer supplemented with 10% sucrose and stored at −80° C. Total protein concentration of the membrane was determined by BCA method from Pierce (Rockford, Ill.).
Human CXCR3 (N-delta 4) Scintillation Proximity Assay (SPA):
For each assay point, 2 μg of membrane was preincubated for 1 hr with 300 μg wheat germ agglutinin (WGA) coated SPA beads (Amersham, Arlington Heights, Ill.) in the binding buffer (50 mM HEPES, 1 mM CaCl2, 5 mM MgCl2, 125 mM NaCl, 0.002% NaN3, 1.0% BSA) at room temperature. The beads were spun down, washed once, resuspended in the binding buffer and transferred to a 96-well Isoplate (Wallac, Gaithersburg, Md.). 25 pM of [^125I] IP-10 with tested compounds in a series of titration were added to start the reaction. After 3 hr reaction at room temperature, the amount of [^125I] IP-10 bound to the SPA beads was determined with a Wallac 1450 Microbeta counter.
The Ki values for the various example compounds of the present invention are given in the afore-mentioned Table 1. From these values, it would be apparent to the skilled artisan that the compounds of the invention have excellent utility CXCR3 antagonists.
In general terms: SPA uses beads or plates that emit light when radiolabelled molecules are held near them.
One may read the IC50 as the midpoint of a concentration-inhibition curve. Regarding `CC[C@H]1CN(c2nc(N)c(-c3nnc(N(C)C)o3)nc2Cl)CCN1C1CCN(Cc2ccc(Cl)cc2)CC1` [Compound 29], the IC50 was less than 25 nM.
Then `CCNc1nnc(-c2cnc(N3CCN(C4CCN(C(=O)c5ccc(Cl)cc5)CC4)[C@@H](CC)C3)c(C)n2)o1` [Compound 142], with less than 25 nM; and `CCNc1nnc(-c2cnc(N3CCN(C4CCN(C(=O)c5ccc(Cl)nc5N)CC4)[C@@H](CC)C3)c(Cl)n2)o1` [Compound 10], with less than 25 nM; and `CC[C@H]1CN(c2ncc(-c3nc[nH]n3)nc2C)[C@H](C)CN1C1CCN(Cc2ccc(OC(F)(F)F)cc2)CC1` [Compound 148], with less than 25 nM.
As to `CC[C@H]1CN(c2ncc(C3=NCCN3)nc2C)[C@H](C)CN1C1CCN(Cc2ccc(OC(F)(F)F)cc2)CC1` [Compound 150], the IC50 is less than 25 nM.
With `CCNc1nnc(-c2cnc(N3CCN(C4CCN(C(=O)c5ccc(Cl)s5)CC4)[C@@H](CC)C3)c(C)n2)o1` [Compound 149] the figure was less than 25 nM; with `CC[C@H]1CN(c2nc(N)c(-c3nnc(CO)o3)nc2Cl)CCN1C1CCN([C@@H](C(=O)OC)c2ccc(Cl)cc2)CC1` [Compound 47], less than 25 nM.
Consider `CC[C@H]1CN(c2nc(N)c(-c3nnc(C)o3)nc2Cl)CCN1C1CCN([C@@H](C(=O)OC)c2ccc(Cl)cc2)CC1` [Compound 61], for which the IC50 is less than 25 nM.
Then `CC[C@H]1CN(c2ncc(-c3nc[nH]n3)nc2C)CCN1C1CCN(C(=O)c2ccc(Cl)c(F)c2)CC1` [Compound 125], with less than 25 nM; and `CC[C@H]1CN(c2ncc(-c3nnc(C)o3)nc2C)CCN1C1CCN(C(=O)c2ccc(OC(F)(F)F)cc2)CC1` [Compound 65], with less than 25 nM; and `CC[C@H]1CN(c2ncc(-c3nnc(N)o3)nc2C)[C@H](C)CN1C1CCN([C@H](C)c2ccc(OC(F)(F)F)cc2)CC1` [Compound 178], with less than 25 nM.
With `CCNc1nnc(-c2cnc(N3C[C@H](CC)N(C4CCN(Cc5ccc(O)cc5)CC4)C[C@H]3C)c(C)n2)o1` [Compound 136] the figure was less than 25 nM; with `CCNc1nnc(-c2cnc(N3C[C@H](CC)N(C4CCN(Cc5ccc(OC(F)(F)F)cc5)CC4)C[C@H]3C)c(C)n2)o1` [Compound 185], less than 25 nM.
As to `CC[C@H]1CN(c2ncc(-c3nc[nH]n3)nc2C)[C@H](C)CN1C1CCN(Cc2ccc(Cl)cc2)CC1` [Compound 112], the concentration for half-maximal inhibition (IC50) is less than 25 nM.
On to `CC[C@H]1CN(c2nc(N)c(-c3nnc(C(F)(F)F)o3)nc2Cl)CCN1C1CCN(C(=O)c2ccc(Cl)cc2)CC1` [Compound 80], for which the IC50 is more than 100 nM.
On to `CC[C@H]1CN(c2ncc(-c3nc[nH]n3)nc2C)CCN1C1CCN(C(=O)c2ccc(C(F)(F)F)nc2N)CC1` [Compound 147], for which the IC50 is 25 to 100 nM.
With `CC[C@H]1CN(c2nc(N)c(-c3n[nH]c(=S)n3C)nc2Cl)CCN1C1CCN(Cc2ccc(Cl)cc2)CC1` [Compound 86] the figure was more than 100 nM; with `CC[C@H]1CN(c2ncc(-c3nc[nH]n3)nc2C)[C@H](C)CN1C1CCN(C(=O)c2ccc(Cl)nc2N)CC1` [Compound 131], less than 25 nM.
Then `CC[C@H]1CN(c2ncc(-c3nnc(N)o3)nc2C)[C@H](C)CN1C1CCN(Cc2ccc(OC(F)(F)F)cc2)CC1` [Compound 167], with less than 25 nM; and `CCNc1nnc(-c2cnc(N3CCN(C4CCN(C(=O)c5ccc(F)c(F)c5)CC4)[C@@H](CC)C3)c(C)n2)o1` [Compound 144], with less than 25 nM.
Turning to `CCNc1nnc(-c2nc(Cl)c(N3CCN(C4CCN(C(=O)c5ccc(Cl)nc5N)CC4)[C@@H](CC)C3)nc2N)o1` [Compound 14], the IC50 was less than 25 nM.
As to `CC[C@H]1CN(c2nc(N)c(-c3nnc(CN)o3)nc2Cl)CCN1C1CCN(C(=O)c2ccc(Cl)nc2N)CC1` [Compound 34], the IC50 was less than 25 nM.
Take `CCNc1nnc(-c2cnc(N3CCN(C4CCN([C@H](CO)c5ccc(Cl)cc5)CC4)[C@@H](CC)C3)c(C)n2)o1` [Compound 163]: the 50% inhibitory concentration (IC50) was less than 25 nM.
For `CCNc1nnc(-c2cnc(N3C[C@H](CC)N(C4CCN(C(C(=O)OC)c5ccc(F)c(F)c5)CC4)C[C@H]3C)c(C)n2)o1` (stereo partly shown) [Compound 188], the IC50 was less than 25 nM.
Regarding `CC[C@H]1CN(c2ncc(-c3nnc(N(CC)S(=O)(=O)c4ccc(C)cc4)o3)nc2C)C(C)CN1C1CCN(C(=O)c2ccc(Cl)cc2)CC1` (stereo partly shown) [Compound 196], the IC50 is 25 to 100 nM.
Consider `CCNc1nnc(-c2cnc(N3C[C@H](CC)N(C4CCN(C(=O)c5ccc(Cl)nc5N)CC4)C[C@H]3C)c(Cl)n2)o1` [Compound 100], for which the IC50 was less than 25 nM.
With `CC[C@H]1CN(c2ncc(-c3nnc(C)o3)nc2Cl)CCN1C1CCN(C(=O)c2ccc(Cl)nc2N)CC1` [Compound 151], the IC50 is less than 25 nM.
`CCNc1nnc(-c2cnc(N3C[C@H](CC)N(C4CCN(C(=O)c5ccc(OC)cc5)CC4)C[C@H]3C)c(C)n2)o1` [Compound 152]: the IC50 fell in the range of 25 to 100 nM.
Then `CCNc1nnc(-c2cnc(N3CCN(C4CCN(CCC(=O)c5ccc(Cl)cc5)CC4)[C@@H](CC)C3)c(C)n2)o1` [Compound 169], with less than 25 nM; and `CC[C@H]1CN(c2ncc(-c3nnc(C)[nH]3)nc2Cl)CCN1C1CCN(C(=O)c2ccc(Cl)nc2N)CC1` [Compound 37], with less than 25 nM; and `CC[C@H]1CN(c2nc(N)c(-c3nnc(C)o3)nc2Cl)CCN1C1CCN(C(=O)c2cc(F)c(Cl)nc2N)CC1` [Compound 19], with less than 25 nM.
Then `CCNc1nnc(-c2cnc(N3C[C@H](CC)N(C4CCN(C(=O)c5ccc(Cl)cc5)CC4)C[C@H]3C)c(Cl)n2)o1` [Compound 101], with less than 25 nM; and `CC[C@H]1CN(c2ncc(-c3nnc(N)[nH]3)nc2Cl)CCN1C1CCN(C(=O)c2ccc(Cl)cc2)CC1` [Compound 66], with less than 25 nM.
For the compound `CC[C@H]1CN(c2nc(N)c(-c3nnc(C)o3)nc2Cl)CCN1C1CCN(Cc2ccc(Cl)cc2-c2nnn[nH]2)CC1` [Compound 55], the IC50 was less than 25 nM.
Then `CCNc1nnc(-c2cnc(N3CCN(C4CCN(C(=O)c5ccc(CC)nc5N)CC4)[C@@H](CC)C3)c(C)n2)o1` [Compound 153], with 25 to 100 nM; and `CC[C@H]1CN(c2nc(N)c(-c3nnc(CNC(=O)C(F)(F)F)o3)nc2Cl)CCN1C1CCN(C(=O)c2ccc(Cl)nc2N)CC1` [Compound 46], with less than 25 nM.
Then `CCc1nnc(-c2cnc(N3CCN(C4CCN(C(=O)c5ccc(Cl)cc5)CC4)[C@@H](CC)C3)c(C)n2)[nH]1` [Compound 129], with less than 25 nM; and `CC[C@H]1CN(c2nc(N)c(-c3nnc(C(N)=O)o3)nc2Cl)CCN1C1CCN(C(=O)c2ccc(Cl)cc2)CC1` [Compound 70], with less than 25 nM.
For the compound `CC[C@H]1CN(c2nc(N)c(-c3nnc(C4CC4)o3)nc2Cl)CCN1C1CCN(C(=O)c2ccc(Cl)nc2N)CC1` [Compound 52], the concentration for half-maximal inhibition (IC50) is less than 25 nM.
For `CC[C@H]1CN(c2nc(N)c(-c3nnc(N)o3)nc2Cl)CCN1C1CCN(Cc2ccc(Cl)nc2)CC1` [Compound 15], the 50% inhibitory concentration (IC50) was less than 25 nM.
For `CC[C@H]1CN(c2nc(O)c(-c3nnc(C)o3)nc2Cl)CCN1C1CCN(C(=O)c2ccc(Cl)cc2)CC1` [Compound 89], the IC50 was more than 100 nM.
As for `CCNc1nnc(-c2cnc(N3CCN(C4CCN(C(=O)c5ccc(Cl)nc5N)CC4)[C@@H](CC)C3)c(C(F)(F)F)n2)o1` [Compound 103], the IC50 is less than 25 nM.
With `CC[C@H]1CN(c2nc(N)c(-c3nnc(N)o3)nc2Cl)CCN1C1CCN(C(=O)c2ccc(Cl)cc2)CC1` [Compound 36] the figure was less than 25 nM.
